These results are taken from paper PMC12656565, “In Vitro and Ultrastructural Evaluation of the Cytotoxic and Antileishmanial Activities of Thiosemicarbazone Compounds Against Promastigotes and Axenic Amastigotes of Leishmania infantum” (Tropical Medicine and Infectious Disease, 2025).

Series [1] concerns L. infantum promastigote cells. Put plainly: Mitochondrial membrane potential (Rhodamine 123, flow cytometry). The class given is cell-based, Leishmania infantum. Particulars: for Variability Index (VI), range: range over the tested concentrations (1× and 2× IC50; H2O2 control). The protocol: To evaluate the effects of compounds on the mitochondrial membrane potential (ΔΨm) of Leishmania infantum, the cationic probe Rhodamine 123 (Rod 123) was used through quantitative flow cytometry analysis. […] After incubation, cells were centrifuged at 3000× g for 5 min, and supernatants discarded. […] Hydrogen peroxide (H2O2) at 1 μM was used as positive control, previously described in the literature as an inducer of mitochondrial potential loss. Cells were analyzed by flow cytometry on the FACSCalibur equipment (Becton & Dickinson, San José, CA, USA), with excitation at 488 nm and detection at 505/534 nm. Fifty thousand events per sample were acquired. Data were expressed as percentage of cells stained with Rhodamine 123 for each tested condition. Fluorescence variation was quantified by Variation Index (VI), calculated by the equation: VI = (MT − MC)/MC, where MT corresponds to the median fluorescence of treated cells and MC to the median of control cells (untreated).

Series [2] deals with L. infantum promastigotes. The series can be described thus: Apoptosis/necrosis by annexin V-FITC and propidium iodide flow cytometry. Format: cell-based, Leishmania infantum. The settings on record: 1× and 2× IC50, 72 h. The protocol: To evaluate cell death types induced by the compounds, promastigote forms of Leishmania infantum (2 × 10^6 cells/mL) were treated with concentrations corresponding to 1× and 2× IC50 of compounds LT-73 and LT-75 for 72 h. After incubation, cells were centrifuged at 3000× g for 5 min, washed with PBS, and subsequently with 1× Buffer Solution provided by the Annexin V-FITC apoptosis detection kit (BD Biosciences, San Jose, CA, USA). Cells were then resuspended in 100 µL Buffer Solution and stained with 5 µL Annexin V conjugated to FITC, incubated for 15 min at room temperature protected from light. After incubation, cells were washed again with 1× Buffer Solution and resuspended in 200 µL of the same buffer. Subsequently, 5 µL propidium iodide (PI) were added to each sample for identification of cells with compromised membrane integrity. Samples were transferred to flow cytometry tubes and analyzed on the FACSCalibur flow cytometer (Becton Dickinson, San José, CA, USA) equipped with CellQuest PRO Software (BD Biosciences; version 5.1), within 4 h after staining. Annexin V-FITC was excited at 488 nm, with fluorescence detected at 530/30 nm; propidium iodide (PI) was excited at 488 nm and detected at 585/42 nm. Single-stained controls for Annexin V-FITC and PI were included in order to apply spillover correction (compensation) between channels.
Background: In flow cytometry, cells or beads pass a laser one at a time.

Series [3] has as its system L. infantum axenic amastigotes. Put plainly: Ultrastructural analysis (SEM/TEM) of axenic amastigote forms. The class given is cell-based, Leishmania infantum. The settings on record: 1× and 2× IC50 (Amphotericin B 1× IC50), 72 h. As to the method: Differentiation of L. infantum promastigote forms into axenic amastigote forms was carried out according to the protocol by Oliveira et al., with adaptations. Stationary-phase promastigotes (72 h) were cultured in modified Schneider’s Drosophila medium supplemented with 10% fetal bovine serum (FBS) at 26 °C. Cells were collected by centrifugation (3000× g for 10 min at 4 °C), washed three times with PBS (150 mM NaCl, 20 mM phosphate buffer, pH 7.2), and adjusted to 1 × 10^6 cells/mL. Differentiation was induced in acidified Schneider’s medium (pH 5.5), supplemented with 2.5% FBS, incubated at 32 °C for seven days.
Axenic amastigotes were obtained from stationary-phase promastigotes of L. infantum following standard differentiation protocols. The cultures were maintained under controlled conditions and monitored daily by optical microscopy. Morphological observations confirmed the transition from elongated promastigotes to rounded amastigote-like forms with internalized or absent flagella. […] Cultures were regularly examined for microbial contamination, and no evidence of bacterial or fungal contamination was detected during the differentiation or experimental periods. Axenic amastigotes were exposed to compounds LT-73 and LT-75 at concentrations corresponding to the IC50 and 2× IC50, previously determined for promastigotes based on leishmanicidal activity, for analysis by scanning (SEM) and transmission electron microscopy (TEM). […]
After this period, cells were washed with PBS (phosphate-buffered saline) and fixed in a solution containing 2.5% glutaraldehyde and 4% formaldehyde in 0.1 M phosphate buffer (pH 7.4) for 24 h at 4 °C. […] Sections were contrasted with 2% uranyl acetate for 30 min and 2.5% lead citrate for 10 min, then analyzed using a Tecnai G2 Spirit TEM (FEI). […]
All images were acquired under standardized laboratory protocols. A minimum of 50 parasites per condition were analyzed by two blinded investigators and no visible precipitation or crystallization occurred during fixation.

The next series concerns J774.A1 macrophages. The arrangement: method as in PMID 33590474. Particulars: highest concentration tested 75 µM, previously determined in collaboration with Jacob et al., ref [20]; cited from earlier work.

“Also recorded” adds a separate entry of the source.

Consider `C[C@@H]1[C@H](O)[C@@H](C)/C=C/C=C/C=C/C=C/C=C/C=C/C=C/[C@H](O[C@@H]2O[C@H](C)[C@@H](O)[C@H](N)[C@@H]2O)C[C@@H]2O[C@](O)(C[C@@H](O)C[C@@H](O)[C@H](O)CC[C@@H](O)C[C@@H](O)CC(=O)O[C@H]1C)C[C@H](O)[C@H]2C(=O)O` [Amphotericin B, reference compound], for which, in series [1] (1× IC50, 72 h), the “Mean (Rho 123 fluorescence)” value was determined as 213 ± 1 and the “Variation (Variation Index, VI = (MT − MC)/MC)” value is reported as −0.70 ± 0.01. For the same molecule, in series [1] (2× IC50, 72 h), the “Mean (Rho 123 fluorescence)” value was determined as 193 ± 3 and the “Variation (Variation Index, VI = (MT − MC)/MC)” value is −0.73 ± 0.02. Further, in series [1], the “Variability Index (VI), range” value was −0.018 to −0.73. The “Cell death profile by annexin V/PI staining (in words)” value (“Cell death profile” below) in series [2] is on record as “induced apoptosis as the main form of cell death”. Further, in series [3], the TEM ultrastructural alterations entry is “plasma membrane rupture, alterations in the kinetoplast, and mitochondrial swelling”. For the same molecule, the CC50 in the series with J774.A1 macrophages is 14 ± 0.3 µM.
Consider `S=C(N/N=C/c1c[nH]c2ncccc12)Nc1ccccc1` [LT-73], for which, in series [1] (1× IC50, 72 h), the “Mean (Rho 123 fluorescence)” value stood at 658 ± 9 and the “Variation (Variation Index, VI = (MT − MC)/MC)” value was −0.07 ± 0.05. The “Mitochondrial membrane depolarization (in words)” value in series [1] (1× and 2× IC50, 72 h) is recorded as “depolarization of the mitochondrial membrane; also recorded: induced a alteration in Δψm”. For the same molecule, in series [1] (2× IC50, 72 h), the “Mean (Rho 123 fluorescence)” value is 697 ± 7 and the “Variation (Variation Index, VI = (MT − MC)/MC)” value is −0.02 ± 0.03. The “Variability Index (VI), range” value in series [1] is −0.02 to −0.07. For the same molecule, the “Cell death profile” value in series [2] is listed as “predominantly induced AV+/PI− staining; also recorded: predominantly induced apoptosis; also recorded: able to induce phosphatidylserine externalization”. Besides, the TEM ultrastructural alterations entry in series [3] was “significant alterations in the plasma membrane and flagellar pocket, chromatin condensation, mitochondrial swelling, and an increased number of intracellular vacuoles”. Also, in the series on J774.A1 macrophages, the CC50 is over 75 µM.
As to `N#Cc1ccc2[nH]cc(/C=N/NC(=S)Nc3ccc(Cl)cc3)c2c1` [LT-75], in series [1] (1× IC50, 72 h), the “Mean (Rho 123 fluorescence)” value came to 1425 ± 106 and the “Variation (Variation Index, VI = (MT − MC)/MC)” value was found to be 1 ± 0.23. For the same molecule, in series [1] (2× IC50, 72 h), the “Mean (Rho 123 fluorescence)” value is on record as 1000 ± 21 and the “Variation (Variation Index, VI = (MT − MC)/MC)” value was 0.41 ± 0.05. Also, in series [2], the “Cell death profile” value was “predominance of AV+/PI− staining; also recorded: predominantly induced apoptosis; also recorded: able to induce phosphatidylserine externalization”. Also, the TEM ultrastructural alterations entry in series [3] was “severe damage to the plasma membrane and cytoskeleton”. The CC50 in the series on J774.A1 macrophages was over 75 µM.
